Experimental data taken from patent publication US20180305332A1, “Bispiperidinyl Derivatives as Liver X Receptor Beta Agonists, Compositions, and Their Use” (Merck Sharp & Dohme Corp., priority 2015, published 2018).

Experiments:
[1] = molecular target: T1, GST tagged LXRbeta LBD (ligand binding domain) (Homo sapiens, UniProt P55055); test: LanthaScreen TR-FRET Liver X Receptor Coactivator Assay, LXR beta-LBD; assay type: biochemical; settings: relative to reference T0901317; for EC50: Inflection Point (potency), co-activator recruitment, read-out: LXR beta IP; for Emax: activity at max dose (efficacy), read-out: LXR beta act @ max dose (%)
T1 construct: purchased Invitrogen pv4658.pps
T1 sequence (P55055 222-460 limits assumed): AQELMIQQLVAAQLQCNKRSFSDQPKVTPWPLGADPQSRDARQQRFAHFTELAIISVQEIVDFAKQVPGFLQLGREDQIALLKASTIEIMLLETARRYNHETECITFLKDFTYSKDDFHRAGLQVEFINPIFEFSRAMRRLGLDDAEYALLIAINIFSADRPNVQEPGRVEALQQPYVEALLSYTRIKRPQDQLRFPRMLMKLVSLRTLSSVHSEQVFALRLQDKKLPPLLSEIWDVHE
How it was run: (§1)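 Cmpd + LBD → add fluorescein coactivator peptide/Tb-anti-GST Ab mix → incubate RT → TR-FRET readout. IP and Emax referenced to T0901317 (dual LXR agonist).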

[2] = molecular target: T2, GST tagged LXRalpha LBD (ligand binding domain) (Homo sapiens, UniProt Q13133); test: LanthaScreen TR-FRET Liver X Receptor Coactivator Assay, LXR alpha-LBD; assay type: biochemical; settings: relative to reference T0901317; for EC50: read-out: LXR alpha IP; for Emax: activity at max dose (efficacy), read-out: LXR alpha act @ max dose (%)
T2 construct: purchased Invitrogen pv4655
T2 sequence (Q13133 209-447 limits assumed): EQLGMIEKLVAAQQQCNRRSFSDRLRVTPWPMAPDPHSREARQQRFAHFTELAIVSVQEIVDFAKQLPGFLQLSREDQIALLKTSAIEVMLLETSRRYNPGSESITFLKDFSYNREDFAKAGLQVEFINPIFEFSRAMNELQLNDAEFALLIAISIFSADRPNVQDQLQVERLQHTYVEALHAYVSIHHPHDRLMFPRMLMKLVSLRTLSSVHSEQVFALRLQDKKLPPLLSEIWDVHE
How it was run: as §1

[3] = Inflection Point (potency), co-activator recruitment

Structure (SMILES) | EC50 [1] [nM] | Emax [1] [%] | EC50 [2, 3] [nM] | Emax [2] [%] | LXR alpha IP (nM) [2, 3]
O=C(c1ccc(N2CCC(C3CCN(C(=O)[C@](O)(c4ccccc4)C(F)(F)F)CC3)CC2)cc1Cl)N1CC(N2CCCC2)C1 [Example E-42, (2R)-3-(1′-{3-chloro-4-[(3-pyrrolidin-1-ylazetidin-1-yl)carbonyl]phenyl}-4,4′-bipiperidin-1-yl)-1,1,1-trifluoro-3-oxo-2-phenylpropan-2-ol] | 98 | 39 | 1460 | 25 | 
O=C(c1ccc(N2CCC(C3CCN(C(=O)[C@](O)(c4ccccc4)C(F)(F)F)CC3)CC2)cc1Cl)N1CC(c2cccnc2)C1 [Example E-43, (2R)-3-(1′-{3-chloro-4-[(3-pyridin-3-ylazetidin-1-yl)carbonyl]phenyl}-4,4′-bipiperidin-1-yl)-1,1,1-trifluoro-3-oxo-2-phenylpropan-2-ol] | 355 | 50 | 3010 | 24 | 
O=C(c1ccc(N2CCC(C3CCN(C(=O)[C@](O)(c4ccccc4)C(F)(F)F)CC3)CC2)cc1Cl)N1CC(N2CCCCC2)C1 [Example E-44, (2R)-3-(1′-{3-chloro-4-[(3-piperidin-1-ylazetidin-1-yl)carbonyl]phenyl}-4,4′-bipiperidin-1-yl)-1,1,1-trifluoro-3-oxo-2-phenylpropan-2-ol] | 90 | 67 | 1690 | 31 | 
O=C(c1ccc(N2CCC(C3CCN(C(=O)[C@](O)(c4ccccc4)C(F)(F)F)CC3)CC2)cc1Cl)N1CC(F)C1 [Example E-45, (2R)-3-(1′-{3-chloro-4-[(3-fluoroazetidin-1-yl)carbonyl]phenyl}-4,4′-bipiperidin-1-yl)-1,1,1-trifluoro-3-oxo-2-phenylpropan-2-ol] | 414 | 68 | 1020 | 12 | 
O=C(c1ccc(N2CCC(C3CCN(C(=O)[C@](O)(c4ccccc4)C(F)(F)F)CC3)CC2)cc1Cl)N1CCC1CO (stereo partly drawn) [Example E-46, (2R)-3-[1′-(3-chloro-4-{[2-(hydroxymethyl)azetidin-1-yl]carbonyl}phenyl)-4,4′-bipiperidin-1-yl]-1,1,1-trifluoro-3-oxo-2-phenylpropan-2-ol] | 395 | 55 | 2250 | 27 | 
COCCCN(C)C(=O)c1ccc(N2CCC(C3CCN(C(=O)[C@](O)(c4ccccc4)C(F)(F)F)CC3)CC2)cc1Cl [Example E-48, 2-chloro-N-(3-methoxyproply)-N-methyl-4-{1′-[(2R)-3,3,3-trifluoro-2-hydroxy-2-phenylpropanoyl]-4,4′-bipiperidin-1-yl}benzamide] | 175 | 106 | 1720 | 26 | 
CN(Cc1nccs1)C(=O)c1ccc(N2CCC(C3CCN(C(=O)[C@](O)(c4ccccc4)C(F)(F)F)CC3)CC2)cc1Cl [Example E-49, 2-chloro-N-methyl-N-(1,3-thiazol-2-ylmethyl)-4-{1′-[(2R)-3,3,3-trifluoro-2-hydroxy-2-phenylpropanoyl]-4,4′-bipiperidin-1-yl}benzamide] | 184 | 77 | 1380 | 30 | 
CN(Cc1ccno1)C(=O)c1ccc(N2CCC(C3CCN(C(=O)[C@](O)(c4ccccc4)C(F)(F)F)CC3)CC2)cc1Cl [Example E-50, 2-chloro-N-(isoxazol-5-ylmethyl)-N-methyl-4-{1′-[(2R)-3,3,3-trifluoro-2-hydroxy-2-phenylpropanoyl]-4,4′-bipiperidin-1-yl}benzamide] | 349 | 74 | 1400 | 31 | 
CC(c1ccon1)N(C)C(=O)c1ccc(N2CCC(C3CCN(C(=O)[C@](O)(c4ccccc4)C(F)(F)F)CC3)CC2)cc1Cl (stereo partly drawn) [Example E-51, 2-chloro-N-(1-isoxazol-3-ylethyl)-N-methyl-4-{1′-[(2R)-3,3,3-trifluoro-2-hydroxy-2-phenylpropanoyl]-4,4′-bipiperidin-1-yl}benzamide] | 145 | 62 | 1720 | 18 | 
CN(Cc1ccon1)C(=O)c1ccc(N2CCC(C3CCN(C(=O)[C@](O)(c4ccccc4)C(F)(F)F)CC3)CC2)cc1Cl [Example E-52, 2-chloro-N-(isoxazol-3-ylmethyl)-N-methyl-4-{1′-[(2R)-3,3,3-trifluoro-2-hydroxy-2-phenylpropanoyl]-4,4′-bipiperidin-1-yl}benzamide] | 206 | 78 | 1420 | 28 | 
CN(C(=O)c1ccc(N2CCC(C3CCN(C(=O)[C@](O)(c4ccccc4)C(F)(F)F)CC3)CC2)cc1Cl)C1CCOC1 (stereo partly drawn) [Example E-53, 2-chloro-N-methyl-N-(tetrahydrofuran-3-yl)-4-{1′-[(2R)-3,3,3-trifluoro-2-hydroxy-2-phenylpropanoyl]-4,4′-bipiperidin-1-yl}benzamide] | 219 | 98 | 1600 | 34 | 
CC(C)(C)OC(=O)NC1CN(C(=O)c2ccc(N3CCC(C4CCN(C(=O)[C@](O)(c5ccccc5)C(F)(F)F)CC4)CC3)cc2Cl)C1 [Example E-56, tert-butyl {1-[(2-chloro-4-{1′-[(2R)-3,3,3-trifluoro-2-hydroxy-2-phenylpropanoyl]-4,4′-bipiperidin-1-yl}phenyl)carbonyl]azetidin-3-yl}carbamate] | 21 | 89 | 488 | 45 | 
O=C(c1ccc(N2CCC(C3CCN(C(=O)[C@](O)(c4ccccc4)C(F)(F)F)CC3)CC2)cc1Cl)N1CCCC1C1CC1 (stereo partly drawn) [Example E-57, (2R)-3-(1′-{3-chloro-4-[(2-cyclopropylpyrrolidin-1-yl)carbonyl]phenyl}-4,4′-bipiperidin-1-yl)-1,1,1-trifluoro-3-oxo-2-phenylpropan-2-ol] | 134 | 65 | 975 | 16 | 

Other lines, results leading:

EC50 [1] [nM] | Emax [1] [%] | EC50 [2, 3] [nM] | Emax [2] [%] | LXR alpha IP (nM) [2, 3] | Structure (SMILES)
334 | 71 |  | 10 | NO IP | Cc1nnc(CN(C)C(=O)c2ccc(N3CCC(C4CCN(C(=O)[C@](O)(c5ccccc5)C(F)(F)F)CC4)CC3)cc2Cl)o1 [Example E-47, 2-chloro-N-methyl-N-[(5-methyl-1,3,4-oxadiazol-2-yl)methyl]-4-{1′-[(2R)-3,3,3-trifluoro-2-hydroxy-2-phenylpropanoyl]-4,4′-bipiperidin-1-yl}benzamide]
35 | 93 | 1460 | 55 |  | CN(Cc1noc(C2CC2)n1)C(=O)c1ccc(N2CCC(C3CCN(C(=O)[C@](O)(c4ccccc4)C(F)(F)F)CC3)CC2)cc1Cl [Example E-54, 2-chloro-N-[(5-cyclopropyl-1,2,4-oxadiazol-3-yl)methyl]-N-methyl-4-{1′-[(2R)-3,3,3-trifluoro-2-hydroxy-2-phenylpropanoyl]-4,4′-bipiperidin-1-yl}benzamide]
66 | 106 | 1110 | 41 |  | Cc1nc(CCN(C)C(=O)c2ccc(N3CCC(C4CCN(C(=O)[C@](O)(c5ccccc5)C(F)(F)F)CC4)CC3)cc2Cl)no1 [Example E-55, 2-chloro-N-methyl-N-[2-(5-methyl-1,2,4-oxadiazol-3-yl)ethyl]-4-{1′-[(2R)-3,3,3-trifluoro-2-hydroxy-2-phenylpropanoyl]-4,4′-bipiperidin-1-yl}benzamide]
57 | 98 | 1830 | 48 |  | CN(CCO)C(=O)c1ccc(N2CCC(C3CCN(C(=O)[C@](O)(c4ccccc4)C(F)(F)F)CC3)CC2)cc1Cl [Example E-58, 2-chloro-N-(2-hydroxyethyl)-N-methyl-4-{1′-[(2R)-3,3,3-trifluoro-2-hydroxy-2-phenylpropanoyl]-4,4′-bipiperidin-1-yl}benzamide]
208 | 89 | 2380 | 21 |  | CCCCN(C)C(=O)c1ccc(N2CCC(C3CCN(C(=O)[C@](O)(c4ccccc4)C(F)(F)F)CC3)CC2)cc1Cl [Example E-59, N-butyl-2-chloro-N-methyl-4-{1′-[(2R)-3,3,3-trifluoro-2-hydroxy-2-phenylpropanoyl]-4,4′-bipiperidin-1-yl}benzamide]
100 | 114 | 1850 | 34 |  | CCN(C)C(=O)c1ccc(N2CCC(C3CCN(C(=O)[C@](O)(c4ccccc4)C(F)(F)F)CC3)CC2)cc1Cl [Example E-60, 2-chloro-N-ethyl-N-methyl-4-{1′-[(2R)-3,3,3-trifluoro-2-hydroxy-2-phenylpropanoyl]-4,4′-bipiperidin-1-yl}benzamide]
100 | 94 | 1280 | 29 |  | CCCN(C)C(=O)c1ccc(N2CCC(C3CCN(C(=O)[C@](O)(c4ccccc4)C(F)(F)F)CC3)CC2)cc1Cl [Example E-61, 2-chloro-N-methyl-N-propyl-4-{1′-[(2R)-3,3,3-trifluoro-2-hydroxy-2-phenylpropanoyl]-4,4′-bipiperidin-1-yl}benzamide]
